Experimental data from patent publication US20220288048A1, “PIMAVANSERIN FOR TREATING SCHIZOPHRENIA OR FOR TREATING PSYCHOSIS SECONDARY TO NEURODEGENERATIVE DISORDERS OR DEPRESSIVE DISORDER” (ACADIA Pharmaceuticals Inc., priority 2019, published 2022).

Test system: adult schizophrenia patients with a persistent inadequate response to their existing antipsychotic therapy
Assay: 6-week study of pimavanserin or placebo added to existing antipsychotic treatment: efficacy rating scales
Type: in vivo, human
Design: key to Marder Disorg, LSM Change from Baseline at W6 / Marder Uncntl, LSM Change from Baseline at W6 / Marder AnxDep, LSM Change from Baseline at W6: PANSS factor score points; PANSS items rated on a 7-point scale; CGI-I, LSM at W6 (column head: Change from Baseline at W6) / DAI-10, LSM Change from Baseline at W6 / KSS, LSM Change from Baseline at W6 / CDSS, LSM Change from Baseline at W6 / SF36 MH, LSM Change from Baseline at W6: scale not given here
Protocol: The effect of pimavanserin as an adjunctive treatment in adult schizophrenia patients with a persistent inadequate response (i.e., partial responders) to their existing antipsychotic therapy was tested. 396 patients with moderate-to-severe psychotic symptoms were randomized to receive either pimavanserin or placebo added to existing antipsychotic treatment. […] Dosages of background oral antipsychotics could not be changed within four weeks of screening and dosages of long-acting injectables (LAI) could not be changed within 16 weeks of screening. […] Patients were administered a daily dose of pimavanserin or a placebo for six weeks. The dose started at 20 mg and could be adjusted to 34 mg or 10 mg between weeks 1 and 3. The majority of patients (56%) completed the study at the highest dose level. Patients were evaluated at baseline and on a weekly basis according to the clinical rating scale Positive and Negative Symptom Scale (PANSS). The PANSS is a 30-item, 7-point rating system that was developed to cover a range of negative symptoms not adequately measured by the Brief Psychiatric Rating Scale. It has sections that specifically measure positive symptoms, negative symptoms, and general psychopathology in schizophrenic subjects. The PANSS is widely used in trials of antipsychotic drug treatment, and has been formally validated for such use. A subset of 5 of the PANSS factors, the […] factors, were also evaluated. Other clinical rating scales that were assessed were the Clinical Global Impression Scale (CGI), Personal and Social Performance Scale (PSP), drug attitude inventory (DAI-10), Karolinska Sleepiness Scale (KSS), Calgary Depression Scale for Schizophrenia (CDSS), 36-item Short Form Physical Health evaluation ([…]) and 36-item Short Form Mental Health evaluation […].

[1] = European sites subgroup, Week 6
[2] = European sites subgroup, Week 6, listed as pimavanserin
[3] = FAS population, W6, Missing as Worsen

CC(C)COc1ccc(CNC(=O)N(Cc2ccc(F)cc2)C2CCN(C)CC2)cc1 [Pimavanserin, N-(4-Fluorophenylmethyl)-N-(1-methylpiperidin-4-yl)-N′-(4-(2-methylpropyloxy)phenylmethyl)carbamide]
PANSS Negative Symptoms Subscale, LS Mean Change at Week 6 (Europe subgroup): −2.9
PANSS Positive Symptoms Subscale, LS Mean Change at Week 6 (Europe subgroup): −5.5
PANSS Negative Symptoms Subscale, Cohen's d Effect Size (Europe subgroup, Week 6): 0.296
PANSS Negative Symptoms Subscale, LS Mean (SE) Difference (Europe subgroup, Week 6): −1.1
PANSS Positive Symptoms Subscale, Cohen's d Effect Size (Europe subgroup, Week 6): 0.195
PANSS Positive Symptoms Subscale, LS Mean (SE) Difference (Europe subgroup, Week 6): −0.8 (0.49)
CGI-S score, Change from Baseline to Week 6, Mean (SE) (European sites subgroup): −0.8 (0.07)
CGI-S score, Week 6, Mean (SE) (European sites subgroup): 3.8 (0.08)
PANSS total score, Change from Baseline to Week 6, Mean (SE) (European sites subgroup): −16.0 (1.06)
PANSS total score, Week 6, Mean (SE) (European sites subgroup): 73.2 (1.18)
CGI-S score, Diff in MMRM LSM (SE), pimavanserin − placebo [1]: −0.2 (0.09)
CGI-S score, Effect Size (Cohen's d) [1]: 0.266
PANSS total score, Diff in MMRM LSM (SE), pimavanserin − placebo [1]: −3.1 (1.37)
PANSS total score, Effect Size (Cohen's d) [1]: 0.261
CGI-S score, Diff in MMRM LSM (SE), pimavanserin − placebo [2]: −0.2
PANSS total score, Diff in MMRM LSM (SE), pimavanserin − placebo [2]: −3.1
CDSS, LSM Change from Baseline at W6 (FAS Population, OC, ANCOVA): −0.6
DAI-10, LSM Change from Baseline at W6 (FAS Population, OC, ANCOVA): 0.4
PSP, LSM Change from Baseline at W6 (FAS Population, OC, ANCOVA): 6.9
SF36 MH, LSM Change from Baseline at W6 (FAS Population, OC, ANCOVA): 5.6
SF36 PH, LSM Change from Baseline at W6 (FAS Population, OC, ANCOVA): 0.46
CDSS, Effect Size (FAS Population, OC, ANCOVA, W6): 0.09
CDSS, Treatment group Comparison (PIM-PBO) LSM (FAS Population, OC, ANCOVA, W6): −0.2
DAI-10, Effect Size (FAS Population, OC, ANCOVA, W6): Neg
DAI-10, Treatment group Comparison (PIM-PBO) LSM (FAS Population, OC, ANCOVA, W6): −0.0
PSP, Effect Size (FAS Population, OC, ANCOVA, W6): 0.15
PSP, Treatment group Comparison (PIM-PBO) LSM (FAS Population, OC, ANCOVA, W6): 1.3
SF36 MH, Effect Size (FAS Population, OC, ANCOVA, W6): 0.11
SF36 MH, Treatment group Comparison (PIM-PBO) LSM (FAS Population, OC, ANCOVA, W6): 1.0
SF36 PH, Effect Size (FAS Population, OC, ANCOVA, W6): 0.00
SF36 PH, Treatment group Comparison (PIM-PBO) LSM (FAS Population, OC, ANCOVA, W6): 0.0
CGI-I, LSM at W6 (column head: Change from Baseline at W6) (FAS Population, OC, MMRM): 2.9
KSS, LSM Change from Baseline at W6 (FAS Population, OC, MMRM): −0.5
Marder AnxDep, LSM Change from Baseline at W6 (FAS Population, OC, MMRM): −2.3
Marder Disorg, LSM Change from Baseline at W6 (FAS Population, OC, MMRM): −2.5
Marder Pos, LSM Change from Baseline at W6 (FAS Population, OC, MMRM): −5.5
Marder Uncntl, LSM Change from Baseline at W6 (FAS Population, OC, MMRM): −1.7
PANSS GenPsy, LSM Change from Baseline at W6 (FAS Population, OC, MMRM): −7.2
PANSS Pos, LSM Change from Baseline at W6 (FAS Population, OC, MMRM): −5.4
CGI-I, Effect Size (FAS Population, OC, MMRM, W6): 0.08
CGI-I, Treatment group Comparison (PIM-PBO) LSM (FAS Population, OC, MMRM, W6): −0.1
KSS, Effect Size (FAS Population, OC, MMRM, W6): 0.23
KSS, Treatment group Comparison (PIM-PBO) LSM (FAS Population, OC, MMRM, W6): −0.3
Marder AnxDep, Effect Size (FAS Population, OC, MMRM, W6): 0.02
Marder AnxDep, Treatment group Comparison (PIM-PBO) LSM (FAS Population, OC, MMRM, W6): −0.0
Marder Disorg, Effect Size (FAS Population, OC, MMRM, W6): 0.18
Marder Disorg, Treatment group Comparison (PIM-PBO) LSM (FAS Population, OC, MMRM, W6): −0.5
Marder Pos, Effect Size (FAS Population, OC, MMRM, W6): 0.16
Marder Pos, Treatment group Comparison (PIM-PBO) LSM (FAS Population, OC, MMRM, W6): −0.8
Marder Uncntl, Effect Size (FAS Population, OC, MMRM, W6): 0.01
Marder Uncntl, Treatment group Comparison (PIM-PBO) LSM (FAS Population, OC, MMRM, W6): −0.0
PANSS GenPsy, Effect Size (FAS Population, OC, MMRM, W6): 0.12
PANSS GenPsy, Treatment group Comparison (PIM-PBO) LSM (FAS Population, OC, MMRM, W6): −0.8
PANSS Pos, Effect Size (FAS Population, OC, MMRM, W6): 0.12
PANSS Pos, Treatment group Comparison (PIM-PBO) LSM (FAS Population, OC, MMRM, W6): −0.5
CGI-I no Chg or Worsened, (%) [3]: (34.7) %
CGI-I no Chg or Worsened, Diff in % (PIM − PBO) [3]: 4.1%
